# Laboratory results reported in PMC9732360, “Discovery and structure of a widespread bacterial ABC transporter specific for ergothioneine” (Nature Communications, 2022).
# Columns and labels:
# EgtUA = EgtUA (Streptococcus pneumoniae, UniProt A0A0H2ZLL3)
# SpEgtUCCTT = target: T1, SpEgtUCCTT (Streptococcus pneumoniae, UniProt A0A0H2ZQB9, G502V/L503C); test: biochemical
# T1 construct: gene egtUBC
# SpEgtUC [1] = target: T2, SpEgtUC (Streptococcus pneumoniae, UniProt A0A0H2ZQB9, E375Q); test: biochemical
# T2 construct: gene egtUBC
# T2 sequence (A0A0H2ZQB9 233-506 E375Q): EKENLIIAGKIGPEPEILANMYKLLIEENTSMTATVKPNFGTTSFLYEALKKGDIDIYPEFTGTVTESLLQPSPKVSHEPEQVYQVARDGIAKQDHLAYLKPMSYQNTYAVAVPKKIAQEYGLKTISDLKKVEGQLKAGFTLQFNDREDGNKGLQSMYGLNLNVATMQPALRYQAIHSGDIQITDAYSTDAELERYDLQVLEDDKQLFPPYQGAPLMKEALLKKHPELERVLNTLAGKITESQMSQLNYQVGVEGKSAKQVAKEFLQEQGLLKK
# EfEgtUC = target: T3, EfEgtUC (Enterococcus faecalis, UniProt Q837Z8); test: intrinsic tyrosine fluorescence titration; type: binding; conditions: read-out: Ka (M^-1) (converted)
# T3 construct: gene egtUBC; N-terminal His6-SUMO cleaved off; expressed in E. coli BL21(DE3)
# T3 sequence (Q837Z8 233-505): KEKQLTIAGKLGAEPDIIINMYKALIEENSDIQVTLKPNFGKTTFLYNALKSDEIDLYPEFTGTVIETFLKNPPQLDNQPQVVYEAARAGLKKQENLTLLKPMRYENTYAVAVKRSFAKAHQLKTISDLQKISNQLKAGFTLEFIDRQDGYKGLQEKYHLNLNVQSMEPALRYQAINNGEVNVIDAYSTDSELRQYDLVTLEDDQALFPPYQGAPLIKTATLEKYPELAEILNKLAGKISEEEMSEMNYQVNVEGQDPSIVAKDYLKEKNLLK
# Description: intrinsic tyrosine fluorescence titration on EfEgtUC
# SpEgtUC [2] = target: T4, SpEgtUC (Streptococcus pneumoniae, UniProt A0A0H2ZQB9, F293Y); test: biochemical
# T4 construct: gene egtUBC
# T4 sequence (A0A0H2ZQB9 233-506 F293Y): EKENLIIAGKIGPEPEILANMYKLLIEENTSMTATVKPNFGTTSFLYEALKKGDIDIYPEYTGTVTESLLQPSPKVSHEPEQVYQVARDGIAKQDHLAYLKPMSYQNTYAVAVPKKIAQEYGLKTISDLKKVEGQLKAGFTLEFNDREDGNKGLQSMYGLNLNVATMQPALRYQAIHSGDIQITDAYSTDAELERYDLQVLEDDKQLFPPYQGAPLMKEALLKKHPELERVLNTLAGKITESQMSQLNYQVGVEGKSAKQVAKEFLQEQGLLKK
# SpEgtUC [3] = target: T5, SpEgtUC (Streptococcus pneumoniae, UniProt A0A0H2ZQB9, Y419F); test: biochemical
# T5 construct: gene egtUBC
# T5 sequence (A0A0H2ZQB9 233-506 Y419F): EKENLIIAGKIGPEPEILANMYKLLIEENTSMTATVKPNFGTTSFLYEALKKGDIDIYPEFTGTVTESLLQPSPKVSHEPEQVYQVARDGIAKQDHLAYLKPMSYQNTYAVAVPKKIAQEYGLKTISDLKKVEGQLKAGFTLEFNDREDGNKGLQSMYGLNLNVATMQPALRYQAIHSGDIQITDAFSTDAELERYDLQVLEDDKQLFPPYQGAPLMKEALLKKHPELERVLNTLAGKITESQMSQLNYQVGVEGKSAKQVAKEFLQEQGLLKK
# LmEgtUC = target: T6, LmEgtUC (Listeria monocytogenes, UniProt Q8Y775); test: intrinsic tyrosine fluorescence titration; type: binding; conditions: read-out: Ka (M^-1) (converted)
# T6 construct: gene egtUBC; N-terminal His6-SUMO cleaved off; expressed in E. coli BL21(DE3); the lmo locus tag is of strain EGD-e, strain used printed as 10403S
# T6 sequence (Q8Y775 231-504): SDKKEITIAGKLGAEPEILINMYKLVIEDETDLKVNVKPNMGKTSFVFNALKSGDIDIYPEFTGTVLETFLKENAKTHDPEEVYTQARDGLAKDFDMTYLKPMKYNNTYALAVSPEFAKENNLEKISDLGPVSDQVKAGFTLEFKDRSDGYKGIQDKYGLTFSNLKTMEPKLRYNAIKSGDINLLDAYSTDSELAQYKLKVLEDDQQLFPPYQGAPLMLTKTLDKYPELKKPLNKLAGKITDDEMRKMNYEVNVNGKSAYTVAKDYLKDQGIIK
# Description: intrinsic tyrosine fluorescence titration on LmEgtUC
# SpEgtUC [4] = target: T7, SpEgtUC (Streptococcus pneumoniae, UniProt A0A0H2ZQB9); test: isothermal titration calorimetry; type: binding; conditions: read-out: Ka (M^-1) (converted)
# T7 construct: gene egtUBC; N-terminal His6-SUMO cleaved off; expressed in E. coli BL21(DE3); monomer
# T7 sequence (A0A0H2ZQB9 233-506): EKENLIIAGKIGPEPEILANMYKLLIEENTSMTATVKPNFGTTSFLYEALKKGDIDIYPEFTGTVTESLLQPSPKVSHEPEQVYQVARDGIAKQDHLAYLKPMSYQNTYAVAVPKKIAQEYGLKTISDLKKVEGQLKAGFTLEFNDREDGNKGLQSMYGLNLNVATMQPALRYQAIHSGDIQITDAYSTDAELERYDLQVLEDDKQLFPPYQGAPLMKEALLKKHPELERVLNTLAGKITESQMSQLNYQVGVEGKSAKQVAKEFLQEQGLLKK
# Description: isothermal titration calorimetry on SpEgtUC
# SaEgtUC = target: T8, SaEgtUC (Staphylococcus aureus, UniProt A0A0H2XK79); test: intrinsic tyrosine fluorescence titration; type: binding; conditions: read-out: Ka (M^-1) (converted)
# T8 construct: gene egtUBC; N-terminal His6-SUMO cleaved off; expressed in E. coli BL21(DE3)
# T8 sequence (A0A0H2XK79 233-504): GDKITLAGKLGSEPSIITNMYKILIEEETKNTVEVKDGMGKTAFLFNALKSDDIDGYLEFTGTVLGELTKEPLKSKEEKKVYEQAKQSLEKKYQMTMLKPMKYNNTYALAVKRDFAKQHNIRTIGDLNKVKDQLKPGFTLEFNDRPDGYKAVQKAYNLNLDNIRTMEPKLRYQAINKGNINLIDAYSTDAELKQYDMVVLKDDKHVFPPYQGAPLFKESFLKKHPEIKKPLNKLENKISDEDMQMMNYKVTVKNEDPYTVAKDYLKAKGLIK
# Description: intrinsic tyrosine fluorescence titration on SaEgtUC
# SpEgtUC [5] = target: T9, SpEgtUC (Streptococcus pneumoniae, UniProt A0A0H2ZQB9, G244F); test: biochemical
# T9 construct: gene egtUBC
# T9 sequence (A0A0H2ZQB9 233-506 G244F): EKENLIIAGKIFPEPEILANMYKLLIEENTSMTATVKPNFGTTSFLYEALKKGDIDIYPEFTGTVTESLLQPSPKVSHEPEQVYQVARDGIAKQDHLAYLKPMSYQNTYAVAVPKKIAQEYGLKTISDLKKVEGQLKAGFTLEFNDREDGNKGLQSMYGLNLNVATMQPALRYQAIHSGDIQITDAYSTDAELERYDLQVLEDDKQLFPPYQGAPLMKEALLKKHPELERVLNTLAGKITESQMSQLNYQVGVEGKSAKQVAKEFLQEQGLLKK
# SpEgtUC [6] = target: T7, SpEgtUC; test: NMR chemical shift perturbation titration; type: binding; conditions: read-out: Ka (M^-1) (converted)
# Description: NMR chemical shift perturbation titration on SpEgtUC
# Sequence of EgtUA (A0A0H2ZLL3 whole entry): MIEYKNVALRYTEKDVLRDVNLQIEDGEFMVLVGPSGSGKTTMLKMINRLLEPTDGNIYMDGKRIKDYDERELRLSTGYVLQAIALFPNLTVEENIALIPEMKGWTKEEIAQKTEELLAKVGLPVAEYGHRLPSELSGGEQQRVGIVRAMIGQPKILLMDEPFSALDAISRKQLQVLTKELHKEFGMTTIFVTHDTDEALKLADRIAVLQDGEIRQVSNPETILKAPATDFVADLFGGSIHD
# T1 sequence (A0A0H2ZQB9 233-503 G502V/L503C): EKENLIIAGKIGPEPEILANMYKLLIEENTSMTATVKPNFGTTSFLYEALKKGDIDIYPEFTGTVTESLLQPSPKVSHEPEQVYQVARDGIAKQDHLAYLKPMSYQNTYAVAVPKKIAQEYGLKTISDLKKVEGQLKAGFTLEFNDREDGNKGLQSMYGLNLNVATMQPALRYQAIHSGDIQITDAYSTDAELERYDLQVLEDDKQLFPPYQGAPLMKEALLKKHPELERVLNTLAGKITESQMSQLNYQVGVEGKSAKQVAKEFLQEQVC
compound,measurement,setting,value
Nc1ncnc2c1ncn2[C@@H]1O[C@H](COP(=O)(O)OP(=O)(O)OP(=O)(O)O)[C@@H](O)[C@H]1O [ATP],in vitro ATPase activity,EgtUA,ATPase activity of WT vs. mutant EgtUA proteins in vitro
"C[N+](C)(C)[C@@H](Cc1c[nH]c(=S)[nH]1)C(=O)[O-] [ET, L-ergothioneine]",Kd,SpEgtUCCTT,52.6 nM
same,Kd,SpEgtUC [1],25 µM
same,Kd,EfEgtUC,62.5 nM
same,Kd,SpEgtUC [2],500 nM
same,Kd,SpEgtUC [3],625 nM
same,Kd,LmEgtUC,55.6 nM
same,Kd,SpEgtUC [4],58.8 nM
same,Kd,SaEgtUC,217 nM
same,Kd,SpEgtUC [5],5 µM
"C[N+](C)(C)CC(=O)[O-] [GB, glycine betaine]",Kd,SpEgtUC [6],> 33.3 mM
"C[N+](C)(C)[C@@H](Cc1cnc[nH]1)C(=O)[O-] [HER, L-hercynine]",Kd,SpEgtUC [6],1.67 mM
